Legend:
Test in all cases: Test D controlled growth environment herbicide test, pre- and postemergence
Format in all cases: in vivo
[1] = test system: barley, spring (spring barley, Hordeum vulgare)
Procedure, shortened: (§1)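 Pre-emergence: seeds sown in silt loam soil were sprayed with compound in a non-phytotoxic solvent mix containing surfactant. Post-emergence: plants at 2 to 18 cm (1- to 4-leaf stage) in peat moss/vermiculite medium got the same formulation. Visual 0–100 rating versus controls after 14 to 21 d.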

[2] = test system: blackgrass (Alopecurus myosuroides)
Procedure, shortened: as §1

[3] = test system: bromegrass, downy (downy bromegrass, Bromus tectorum)
Procedure, shortened: as §1

[4] = test system: canarygrass (Phalaris minor)
Procedure, shortened: as §1

[5] = test system: chamomile (scentless chamomile, Matricaria inodora)
Procedure, shortened: as §1

[6] = test system: chickweed (common chickweed, Stellaria media)
Procedure, shortened: as §1

[7] = test system: deadnettle (henbit deadnettle, Lamium amplexicaule)
Procedure, shortened: as §1

[8] = test system: field poppy (Papaver rhoeas)
Procedure, shortened: as §1

[9] = test system: foxtail, green (green foxtail, Setaria viridis)
Procedure, shortened: as §1

[10] = test system: galium (catchweed bedstraw, Galium aparine)
Procedure, shortened: as §1

kochia (Kochia scoparia) = test system: kochia (Kochia scoparia)
Procedure, shortened: as §1

[11] = test system: lambsquarters (Chenopodium album)
Procedure, shortened: as §1

[12] = test system: oilseed rape (Brassica napus)
Procedure, shortened: as §1

[13] = test system: wheat, spring (spring wheat, Triticum aestivum)
Procedure, shortened: as §1

[14] = Postemergence, 31 g ai/ha, scale 0 to 100 (0 no effect, 100 complete control)
[15] = Postemergence, 125 g ai/ha, visual rating on scale 0 (no effect) to 100 (complete control), 14 to 21 d
[16] = Postemergence, 250 g ai/ha, scale 0 to 100 (0 no effect, 100 complete control)
[17] = Preemergence, 62 g ai/ha, scale 0 to 100 (0 no effect, 100 complete control)
[18] = Preemergence, 125 g ai/ha, scale 0 to 100 (0 no effect, 100 complete control)
[19] = Preemergence, 250 g ai/ha, scale 0 to 100, 0 no effect, 100 complete control
[20] = postemergence, 62 g ai/ha, scale 0 to 100, 0 no effect, 100 complete control

CC(=O)Oc1c(C)nn(C)c(=O)c1-c1c(C)sc2ccc(Cl)cc12 [Compound 108]
Barley, Spring plant response rating [1, 14]: 0
Plant response rating, Barley, Spring [1, 15]: 15
Plant response rating, Barley, Spring [1, 16]: 20
Plant response rating (scale of 0 to 100), Barley, Spring ([1]; Preemergence, 31 g ai/ha): 0
Plant response rating, Barley, Spring [1, 17]: 0
Plant response rating, Barley, Spring [1, 18]: 0
Plant response rating, Barley, Spring [1, 19]: 0
Plant response rating, Barley, Spring [1, 20]: 10
Blackgrass plant response rating [2, 14]: 20
Plant response rating, Blackgrass [2, 15]: 65
Plant response rating, Blackgrass [2, 16]: 75
Plant response rating (scale of 0 to 100), Blackgrass ([2]; Preemergence, 31 g ai/ha): 15
Plant response rating, Blackgrass [2, 17]: 35
Plant response rating, Blackgrass [2, 18]: 50
Plant response rating, Blackgrass [2, 19]: 80
Plant response rating, Blackgrass [2, 20]: 45
Bromegrass, Downy plant response rating [3, 14]: 25
Plant response rating, Bromegrass, Downy [3, 15]: 40
Plant response rating, Bromegrass, Downy [3, 16]: 65
Plant response rating (scale of 0 to 100), Bromegrass, Downy ([3]; Preemergence, 31 g ai/ha): 25
Plant response rating, Bromegrass, Downy [3, 17]: 25
Plant response rating, Bromegrass, Downy [3, 18]: 70
Plant response rating, Bromegrass, Downy [3, 19]: 75
Plant response rating, Bromegrass, Downy [3, 20]: 30
Canarygrass plant response rating [4, 14]: 40
Plant response rating, Canarygrass [4, 15]: 80
Plant response rating, Canarygrass [4, 16]: 80
Plant response rating (scale of 0 to 100), Canarygrass ([4]; Preemergence, 31 g ai/ha): 45
Plant response rating (scale of 0 to 100), Canarygrass ([4]; Preemergence, 62 g ai/ha): 80
Plant response rating, Canarygrass [4, 18]: 90
Plant response rating, Canarygrass [4, 19]: 95
Plant response rating, Canarygrass [4, 20]: 50
Chamomile plant response rating [5, 14]: 75
Plant response rating, Chamomile [5, 15]: 95
Plant response rating, Chamomile [5, 16]: 100
Plant response rating, Chamomile [5, 20]: 85
Chickweed plant response rating [6, 14]: 90
Plant response rating, Chickweed [6, 15]: 100
Plant response rating, Chickweed [6, 16]: 100
Plant response rating (scale of 0 to 100), Chickweed ([6]; Preemergence, 31 g ai/ha): 100
Plant response rating (scale of 0 to 100), Chickweed ([6]; Preemergence, 62 g ai/ha): 100
Plant response rating, Chickweed [6, 18]: 100
Plant response rating, Chickweed [6, 19]: 100
Plant response rating, Chickweed [6, 20]: 100
Deadnettle plant response rating [7, 14]: 35
Plant response rating, Deadnettle [7, 15]: 75
Plant response rating, Deadnettle [7, 16]: 90
Plant response rating (scale of 0 to 100), Deadnettle ([7]; Preemergence, 31 g ai/ha): 0
Plant response rating (scale of 0 to 100), Deadnettle ([7]; Preemergence, 62 g ai/ha): 25
Plant response rating, Deadnettle [7, 18]: 95
Plant response rating, Deadnettle [7, 19]: 100
Plant response rating, Deadnettle [7, 20]: 50
Field Poppy plant response rating [8, 14]: 20
Plant response rating, Field Poppy [8, 15]: 65
Plant response rating, Field Poppy [8, 16]: 75
Plant response rating (scale of 0 to 100), Field Poppy ([8]; Preemergence, 31 g ai/ha): 10
Plant response rating (scale of 0 to 100), Field Poppy ([8]; Preemergence, 62 g ai/ha): 10
Plant response rating, Field Poppy [8, 18]: 100
Plant response rating, Field Poppy [8, 19]: 100
Plant response rating, Field Poppy [8, 20]: 55
Foxtail, Green plant response rating [9, 14]: 65
Plant response rating, Foxtail, Green [9, 15]: 75
Plant response rating, Foxtail, Green [9, 16]: 95
Plant response rating (scale of 0 to 100), Foxtail, Green ([9]; Preemergence, 31 g ai/ha): 30
Plant response rating (scale of 0 to 100), Foxtail, Green ([9]; Preemergence, 62 g ai/ha): 90
Plant response rating, Foxtail, Green [9, 18]: 100
Plant response rating, Foxtail, Green [9, 19]: 100
Plant response rating, Foxtail, Green [9, 20]: 70
Galium plant response rating [10, 14]: 90
Plant response rating, Galium [10, 15]: 100
Plant response rating, Galium [10, 16]: 100
Plant response rating (scale of 0 to 100), Galium ([10]; Preemergence, 31 g ai/ha): 60
Plant response rating (scale of 0 to 100), Galium ([10]; Preemergence, 62 g ai/ha): 70
Plant response rating, Galium [10, 18]: 95
Plant response rating, Galium [10, 19]: 100
Plant response rating, Galium [10, 20]: 95
Kochia plant response rating (kochia (Kochia scoparia); [14]): 90
Plant response rating, Kochia (kochia (Kochia scoparia); [15]): 100
Plant response rating, Kochia (kochia (Kochia scoparia); [16]): 100
Plant response rating (scale of 0 to 100), Kochia (kochia (Kochia scoparia); Preemergence, 31 g ai/ha): 60
Plant response rating (scale of 0 to 100), Kochia (kochia (Kochia scoparia); Preemergence, 62 g ai/ha): 95
Plant response rating, Kochia (kochia (Kochia scoparia); [18]): 80
Plant response rating, Kochia (kochia (Kochia scoparia); [19]): 100
Plant response rating, Kochia (kochia (Kochia scoparia); [20]): 100
Lambsquarters plant response rating [11, 14]: 90
Plant response rating, Lambsquarters [11, 15]: 100
Plant response rating, Lambsquarters [11, 16]: 100
Plant response rating (scale of 0 to 100), Lambsquarters ([11]; Preemergence, 31 g ai/ha): 100
Plant response rating (scale of 0 to 100), Lambsquarters ([11]; Preemergence, 62 g ai/ha): 100
Plant response rating, Lambsquarters [11, 18]: 100
Plant response rating, Lambsquarters [11, 19]: 100
Plant response rating, Lambsquarters [11, 20]: 95
Oilseed Rape plant response rating [12, 14]: 45
Plant response rating, Oilseed Rape [12, 15]: 75
Plant response rating, Oilseed Rape [12, 16]: 100
Plant response rating (scale of 0 to 100), Oilseed Rape ([12]; Preemergence, 31 g ai/ha): 20
Plant response rating (scale of 0 to 100), Oilseed Rape ([12]; Preemergence, 62 g ai/ha): 45
Plant response rating, Oilseed Rape [12, 18]: 75
Plant response rating, Oilseed Rape [12, 19]: 40
Plant response rating, Oilseed Rape [12, 20]: 70
Wheat, Spring plant response rating [13, 14]: 15
Plant response rating, Wheat, Spring [13, 15]: 20
Plant response rating, Wheat, Spring [13, 16]: 30
Plant response rating (scale of 0 to 100), Wheat, Spring ([13]; Preemergence, 31 g ai/ha): 0
Plant response rating (scale of 0 to 100), Wheat, Spring ([13]; Preemergence, 62 g ai/ha): 20
Plant response rating, Wheat, Spring [13, 18]: 25
Plant response rating, Wheat, Spring [13, 19]: 40
Plant response rating, Wheat, Spring [13, 20]: 20

— patent US10597388B2, “Pyridazinone herbicides” (FMC CORPORATION, priority 2014, dated 2020)
